Here are results for 33 molecules from US6077841A, “5-heterocyclyl pyrazolo[4,3-d]pyrimidin-7-ones for the treatment of male erectile dysfunction” (Janssen Pharmaceutica, N.V., priority 1999, dated 2000).

One data set deals with PDE V (Oryctolagus cuniculus, UniProt G1SX67). Description: Measurement of Inhibition of PDE V (cyclic nucleotide phosphodiesterase assay). Type of data set: biochemical, rabbit. The following applies: for IC50: 1 μM cGMP or cAMP, pH 7.4, 30° C., 30 minutes, 10% DMSO, read-out: Activity IC50 (PDEV inhibitory activity); for inhibition at 20 µM / inhibition at 10 µM: read-out: Activity Inhibition % at (conc. μM).

Data set [1] relates to erectile dysfunction. The following applies: cited from earlier work.
The subject of data set [2] is erectile dysfunction. The following applies: cited from earlier work. The source holds these as a separate data set.

Where two headings read alike, the source gives them in different places.

Regarding `CCCc1nn(C)c2c(=O)[nH]c(-c3sccc3OCC)nc12` [Compound 4, 5-(3-Ethoxythiophene-2-yl)-1-methyl-3-n-propyl-6,7-dihydro-1H-pyrazolo-[4,3-d]pyrimidin-7-one], the IC50 on PDE V is 470 nM. As to `CCCc1nn(C)c2c(=O)[nH]c(-c3sc(S(=O)(=O)N4CCN(C)CC4)cc3OCC)nc12` [Compound 5, 5-[3-Ethoxy-5-(4-methylpiperazinylsulfonyl)-thiophene-2-yl]-1-methyl-3-n-propyl-6,7-dihydro-1H-pyrazolo-[4,3-d]pyrimidin-7-one], at PDE V, the IC50 came out at 8000 nM. Regarding `CCCc1nn(C)c2c(=O)[nH]c(-c3sc(S(=O)(=O)N4CCN(C)CC4)cc3O)nc12` [Compound 6, 5-[3-hydroxy-5-(4-methylpiperazinylsulfonyl)-thiophene-2-yl]-1-methyl-3-n-propyl-6,7-dihydro-1H-pyrazolo-[4,3-d]pyrimidin-7-one], the IC50 on PDE V was 10000 nM. As to `CCCc1nn(C)c2c(=O)[nH]c(-c3cc4cccc(OCC)c4o3)nc12` [Compound 7, 5-(7-Ethoxybenzofuran-2-yl)-1-methyl-3-n-propyl-6,7-dihydro-1H-pyrazolo-[4,3-d]pyrimidin-7-one], at PDE V, the IC50 was 910 nM. As to `CCCc1nn(C)c2c(=O)[nH]c(-c3cc4c(S(=O)(=O)N5CCN(C)CC5)ccc(OCC)c4o3)nc12` [Compound 8], the IC50 at PDE V came to 5400 nM. Regarding `CCCc1nn(C)c2c(=O)[nH]c(-c3cc4c(S(=O)(=O)N5CCN(C)CC5)cc(S(=O)(=O)N5CCN(C)CC5)c(OCC)c4o3)nc12` [Compound 9], on PDE V, the inhibition at 20 µM turned out to be 6%. For the molecule `CCCc1nn(C)c2c(=O)[nH]c(-c3cccn3C)nc12` [Compound 10], the IC50 at PDE V was 3500 nM. `CCCc1nn(C)c2c(=O)[nH]c(-c3cc(S(=O)(=O)N4CCN(C)CC4)cn3C)nc12` [Compound 11]: the inhibition at 10 µM on PDE V is 31%. For the molecule `CCCc1nn(C)c2c(=O)[nH]c(-c3sc(S(=O)(=O)N4CCN(c5ncccn5)CC4)cc3OCC)nc12` [Compound 12], the half-inhibitory concentration (IC50) on PDE V was 1200 nM. Consider `CCCc1nn(C)c2c(=O)[nH]c(-c3sc(S(=O)(=O)N4CCN(Cc5ccccc5)CC4)cc3OCC)nc12` [Compound 13], for which, at PDE V, the inhibition at 20 µM was 46%. As for `CCCc1nn(C)c2c(=O)[nH]c(-c3sc(S(=O)(=O)N4CCN(Cc5ccccc5)CC4)cc3O)nc12` [Compound 14], on PDE V, the inhibition at 20 µM was 18%. For the molecule `CCCc1nn(C)c2c(=O)[nH]c(-c3sc(S(=O)(=O)N4CCN(c5ncccn5)CC4)cc3O)nc12` [Compound 15], the inhibition at 20 µM at PDE V came out at 13%. For `CCCc1nn(C)c2c(=O)[nH]c(-c3sc(S(=O)(=O)N4CCN(c5ccccc5)CC4)cc3OCC)nc12` [Compound 16], the inhibition at 10 µM at PDE V was found to be 19%.

On to `CCCc1nn(C)c2c(=O)[nH]c(-c3sc(S(=O)(=O)N4CCN(c5ccccc5)CC4)cc3O)nc12` [Compound 17], for which the inhibition at 10 µM on PDE V amounted to 28%.

Take `CCCc1nn(C)c2c(=O)[nH]c(-c3sc(S(=O)(=O)N4CCN(C/C=C/c5ccccc5)CC4)cc3OCC)nc12` [Compound 18]: the inhibition at 10 µM at PDE V came out at 44%. For the molecule `CCCc1nn(C)c2c(=O)[nH]c(-c3sc(S(=O)(=O)N4CCN(C/C=C/c5ccccc5)CC4)cc3O)nc12` [Compound 19], the inhibition at 10 µM at PDE V is 27%. With `CCCc1nn(C)c2c(=O)[nH]c(-c3sc(S(=O)(=O)N4CCN(C(N)=O)CC4)cc3OCC)nc12` [Compound 20], on PDE V, the IC50 was 950 nM. Regarding `CCCc1nn(C)c2c(=O)[nH]c(-c3sc(S(=O)(=O)N4CCN(C(N)=O)CC4)cc3O)nc12` [Compound 21], at PDE V, the inhibition at 10 µM was 30%.

`CCCc1nn(C)c2c(=O)[nH]c(-c3sc(S(=O)(=O)N(C)C)cc3OCC)nc12` [Compound 22]: the IC50 at PDE V worked out at 1400 nM. Take `CCCc1nn(C)c2c(=O)[nH]c(-c3sc(S(=O)(=O)N(C)C)cc3O)nc12` [Compound 23]: on PDE V, the inhibition at 10 µM worked out at 30%. In the case of `CCCc1nn(C)c2c(=O)[nH]c(-c3sc(S(=O)(=O)N4CCN(CC)CC4)cc3OCC)nc12` [Compound 24], at PDE V, the IC50 is 2300 nM. Take `CCCc1nn(C)c2c(=O)[nH]c(-c3sc(S(=O)(=O)N4CCN(CC)CC4)cc3O)nc12` [Compound 25]: the inhibition at 10 µM on PDE V was 26%. For `CCCc1nn(C)c2c(=O)[nH]c(-c3sc(S(=O)(=O)N(C)CCN(C)C)cc3OCC)nc12` [Compound 26], at PDE V, the IC50 was found to be 4900 nM.

Turning to `CCCc1nn(C)c2c(=O)[nH]c(-c3sc(S(=O)(=O)N(C)CCN(C)C)cc3O)nc12` [Compound 27], the inhibition at 10 µM on PDE V amounted to 32%. Take `CCCc1nn(C)c2c(=O)[nH]c(-c3cccs3)nc12` [Compound 28]: the IC50 on PDE V stood at 1600 nM. Same read-out and setting: then `CCCc1nn(C)c2c(=O)[nH]c(-c3sc(S(=O)(=O)N4CCC(N(C)C)CC4)cc3OCC)nc12` [Compound 29], with 8300 nM. As for `CCCc1nn(C)c2c(=O)[nH]c(-c3sc(S(=O)(=O)N4CCN(C5CCCCC5)CC4)cc3OCC)nc12` [Compound 30], the inhibition at 10 µM on PDE V came to 33%. Still for that read-out and setting: for `CCCc1nn(C)c2c(=O)[nH]c(-c3sc(S(=O)(=O)N4CCN(C5CCCCC5)CC4)cc3O)nc12` [Compound 31] the value was 31%; for `CCCc1nn(C)c2c(=O)[nH]c(-c3cc(S(=O)(=O)N4CCN(c5ncccn5)CC4)cn3C)nc12` [Compound 32], 31%. In the case of `CCCCC[C@H](O)/C=C/[C@H]1[C@H](O)CC(=O)[C@@H]1CCCCCCC(=O)O` [alprostadil], the side effects entry with erectile dysfunction [1] (in vivo) was “priapism, fibrosis, penile pain and hematoma at the injection site”. As for `COc1ccc(Cc2nccc3cc(OC)c(OC)cc23)cc1OC` [papaverine], the side effects result with erectile dysfunction [1] (direct intracavernosal or intraurethral injection) is “priapism, fibrosis, penile pain and hematoma at the injection site”. As to `Cc1ccc(N(CC2=NCCN2)c2cccc(O)c2)cc1` [phentolamine], in the data set with erectile dysfunction [1] (in vivo), the side effects entry is “priapism, fibrosis, penile pain and hematoma at the injection site”. On to `CCCc1nn(C)c2c(=O)[nH]c(-c3cc(S(=O)(=O)N4CCN(C)CC4)ccc3OCC)nc12` [sildenafil, 5-[2-ethoxy-5-(4-methylpiperazin-1-ylsulphonyl)phenyl]-1-methyl-3-n-propyl-6,7-dihydro-1H-pyrazolo[4,3-d]pyrimidin-7-one], for which the “improved sexual function in men who suffer from ED” value in the data set with erectile dysfunction [2] (ED of psychogenic or organic etiology, share of men) was “about 70%”. Besides, the “patients with improved erections” value in the data set on erectile dysfunction [2] (patients who had undergone a radical prostatectomy, versus 15% on placebo) is recorded as 43%. Moreover, the undesirable side effects result in the data set on erectile dysfunction [2] (use of sildenafil) was “headache, flushing and disrupted color vision”.
